Assays:
[1] = test system: phosphorylated ERK in Human A375 melanoma cancer cells; assay: AlphaScreen assay for phosphorylated ERK in A375 cells; settings: A-375, 1 h, compound treatment 60 minutes at 37 degree, phospho-ERK, read-out: IC50 (nM) Cell based
Method: The SureFire Phospho-ERK1/2 Assay kit and the AlphaScreen General IgG (Protein A) Detection kit were both purchased from PerkinElmer.
Generation of Cell Based IC50 Data • Effects of compounds in the cell were determined by the AlphaScreen assay for phosphorylated ERK. Human A375 melanoma cancer cells were plated in a 96 wells plate at 80,000 cells per well and grown in a 37 degree humidified CO2 incubator. The following day, cells were treated with a range of compound concentrations for 60 minutes at 37 degree. The cells were then lysed and 4 ul of each lysate were transferred into the 384 well white reaction plate. A cocktail of AlphaScreen beads and buffer was freshly prepared and this mixture was dispensed into each well in a room with low light. A top seal was applied and the plate was incubated at 25 degree avoiding light for two hours. The top seal was removed when the plate was counted by the EnVision multi labeled plate reader (PerkinElmer) with an optimized AlphaScreen program. […] Biological Data for Select Compounds

MEK1 kinase = MEK1 kinase (Homo sapiens (Human), UniProt Q02750); assay: MEK1 kinase enzymatic activity assay (Kinase Glo plus luminescence); assay type: biochemical; settings: 60 minutes at 22 degree
Chain of MEK1 kinase (Q02750 whole entry): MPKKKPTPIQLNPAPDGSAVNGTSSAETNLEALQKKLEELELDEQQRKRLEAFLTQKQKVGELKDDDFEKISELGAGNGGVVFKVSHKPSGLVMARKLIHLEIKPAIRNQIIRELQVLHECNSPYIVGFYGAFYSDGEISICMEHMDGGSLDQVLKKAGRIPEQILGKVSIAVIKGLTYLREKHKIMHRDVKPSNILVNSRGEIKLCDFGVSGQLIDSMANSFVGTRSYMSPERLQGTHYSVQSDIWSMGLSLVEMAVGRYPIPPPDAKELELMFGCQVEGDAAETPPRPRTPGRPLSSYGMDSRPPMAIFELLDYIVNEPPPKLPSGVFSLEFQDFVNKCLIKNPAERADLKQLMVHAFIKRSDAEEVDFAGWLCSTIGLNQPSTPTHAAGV
Method: The Kinase Glo plus assay kit was purchased from Promega. The substrate, APT, DTT, and dimethylsulfoxide were purchased from Sigma-Aldrich.
The MAP2K1 (MEK1) kinase, Europium labeled Antibody, Tracer 236 and binding buffer A were purchased from Invitrogen.
Determination of Enzymatic Activity:
Compounds were diluted from DMSO stocks into 1× buffer (20 mM MOPS, PH 7.4, 5 mM MgCl2, 0.5 mM MnCl2, 100 uM Sodium Orthovanadate, 0.01% Triton X-100, 1 mM DTT). A typical reaction assay contained 0.01 nanomoles MEK1 kinase, 0.01 nanomoles ATP, 10 nanograms substrate. The screening assay essentially comprised four additions. 2 ul of diluted compounds were dispensed to 384 well white assay plates. 6 ul of kinase-substrate cocktail was then added to each well. 2 ul 5×ATP was subsequently added to each well to start the reaction. A top seal was applied and the plate was incubated at 22 degree avoiding light for 60 minutes. Finally, 10 ul of the Kinase Glo plus reagent was added to each well to stop the reaction. Incubated at room temperature and avoid light for ten minutes. The top seal was removed and the plate was counted by the EnVision 2104 multi labeled plate reader (PerkinElmer) with a standard luminescent program.

Row | IC50 [1] | IC50 (MEK1 kinase) | SMILES
1 | < 100 nM | < 1000 nM | Cn1c(Nc2ccc(I)cc2F)c(C(=O)NOCCO)c2ncsc2c1=O
2 | < 100 nM | < 1000 nM | Cn1c(Nc2ccc(I)cc2F)c(C(N)=O)c2occc2c1=O
3 | < 100 nM | < 500 nM | Cc1cc2c(=O)n(C)c(Nc3ccc(I)cc3F)c(C(=O)NOC[C@H](O)CO)c2o1
4 | < 100 nM | < 100 nM | Cn1c(Nc2ccc(I)cc2F)c(C(=O)NOCCO)c2occc2c1=O
5 | < 100 nM | < 500 nM | CONC(=O)c1c(Nc2ccc(I)cc2F)n(C)c(=O)c2ccoc12
6 | < 100 nM | < 1000 nM | CSc1ccc(Nc2c(C(=O)NOCCO)c3occc3c(=O)n2C)c(Cl)c1
7 | < 100 nM | < 100 nM | Cn1c(Nc2ccc(I)cc2Cl)c(C(=O)NOCCO)c2occc2c1=O
8 | < 100 nM | < 1000 nM | Cc1nc2c(=O)n(C)c(Nc3ccc(I)cc3F)c(C(=O)NOCCO)c2o1
9 | < 100 nM | < 100 nM | C[C@H](O)CONC(=O)c1c(Nc2ccc(I)cc2F)n(C)c(=O)c2ccoc12
10 | < 100 nM | < 500 nM | CSc1nc2c(C(=O)NOCCO)c(Nc3ccc(I)cc3F)n(C)c(=O)c2s1
11 | < 100 nM | < 500 nM | CNc1nc2c(C(=O)NOCCO)c(Nc3ccc(I)cc3F)n(C)c(=O)c2s1
12 | < 100 nM | < 100 nM | Cn1c(Nc2ccc(I)cc2F)c(C(=O)NOC(C)(C)CO)c2occc2c1=O
13 | < 10000 nM | < 10000 nM | Cn1c(Nc2ccc(I)cc2F)c(C(=O)NOCCO)c2scnc2c1=O
14 | < 100 nM | < 500 nM | Cn1c(Nc2ccc(I)cc2F)c(C(=O)NOCCO)c2oc(CN3CCOCC3)cc2c1=O
15 | < 100 nM | < 10000 nM | Cn1c(Nc2ccc(Br)cc2F)c(C(=O)NOCCO)c2occc2c1=O
16 | < 100 nM | < 500 nM | CN(C)Cc1cc2c(=O)n(C)c(Nc3ccc(I)cc3F)c(C(=O)NOCCO)c2o1
17 | < 100 nM | < 500 nM | Cn1c(Nc2ccc(I)cc2F)c(C(=O)NOCCO)c2sccc2c1=O
18 | < 100 nM | < 500 nM | Cc1coc2c(C(=O)NOCCO)c(Nc3ccc(I)cc3Cl)n(C)c(=O)c12
19 | < 100 nM | < 500 nM | Cc1cc2c(=O)n(C)c(Nc3ccc(I)cc3F)c(C(=O)NOCCO)c2o1

Row | IC50 [1] | IC50 (MEK1 kinase) | SMILES
20 | < 1000 nM | < 10000 nM | Cn1c(Nc2ccc(Cl)cc2Cl)c(C(=O)NOCCO)c2occc2c1=O
21 | < 100 nM | < 10000 nM | Cn1c(Nc2ccc(I)cc2F)c(C(=O)NCCCO)c2occc2c1=O
22 | < 100 nM | < 1000 nM | Cn1c(Nc2ccc(I)cc2F)c(C(=O)N2CC(O)(C3CCCCN3)C2)c2occc2c1=O (stereo not shown)
23 | < 100 nM | < 500 nM | Cn1c(Nc2ccc(I)cc2F)c(C(=O)NOCCO)c2nc(N)sc2c1=O
24 | < 100 nM | < 10000 nM | Cn1c(Nc2ccc(I)cc2Cl)c(C(=O)NCCCO)c2occc2c1=O
25 | < 100 nM | < 1000 nM | Cn1c(Nc2ccc(Br)cc2Cl)c(C(=O)NOCCO)c2occc2c1=O
26 | < 100 nM | < 10000 nM | Cc1noc2c(C(=O)NOCCO)c(Nc3ccc(I)cc3F)n(C)c(=O)c12
27 | < 100 nM | < 100 nM | C[C@@H](CO)ONC(=O)c1c(Nc2ccc(I)cc2F)n(C)c(=O)c2ccoc12
28 | < 500 nM | < 10000 nM | Cn1c(Nc2ccc(I)cc2F)c(C(=O)NC(=O)CO)c2occc2c1=O
29 | < 100 nM | < 500 nM | COCCONC(=O)c1c(Nc2ccc(I)cc2F)n(C)c(=O)c2ccoc12
30 | < 100 nM | < 100 nM | Cn1c(Nc2ccc(I)cc2F)c(C(=O)NOC[C@H](O)CO)c2occc2c1=O
31 | < 100 nM | < 1000 nM | Cn1c(Nc2ccc(I)cc2F)c(C(=O)NCC(O)CO)c2occc2c1=O (stereo not shown)
32 | < 100 nM | < 100 nM | Cn1c(Nc2ccc(I)cc2F)c(C(=O)NOCC2CC2)c2occc2c1=O
33 | < 100 nM | < 500 nM | Cc1nc2c(C(=O)NOCCO)c(Nc3ccc(I)cc3F)n(C)c(=O)c2s1
34 | < 100 nM | < 100 nM | CSc1nc2c(C(=O)NOCCO)c(Nc3ccc(I)cc3Cl)n(C)c(=O)c2s1
35 | < 100 nM | < 500 nM | CCONC(=O)c1c(Nc2ccc(I)cc2F)n(C)c(=O)c2ccoc12
36 | < 100 nM | < 500 nM | Cc1coc2c(C(=O)NOCCO)c(Nc3ccc(I)cc3F)n(C)c(=O)c12
37 | < 100 nM | < 500 nM | CSc1ccc(Nc2c(C(=O)NOCCO)c3occc3c(=O)n2C)c(F)c1
38 | < 100 nM | < 100 nM | CC[C@H](O)CONC(=O)c1c(Nc2ccc(I)cc2F)n(C)c(=O)c2ccoc12
